Experimental data: paper PMC7871333 (Science translational medicine, 2020)

Tests used:
[1] = in vivo
[2] = rats; cited from earlier work

SMILES | Caffeine pharmacokinetic parameters sampled in plasma or ISF [1] | Concentration in ISF compared to serum [2]
Cn1c(=O)c2c(ncn2C)n(C)c1=O [caffeine] | not significantly different | –
CC/N=c1\cc2oc3cc(NCC)c(C)cc3c(-c3ccccc3C(=O)OCC)c-2cc1C [rhodamine 6G] | – | lower than in serum
